The source of these data is patent US20030114445A1, “N3-substituted 6-anilinopyrimidines and methods to treat-Gram-positive bacterial and mycoplasmal infections” (priority 2001, published 2003).

For orientation: MIC means the lowest concentration that inhibits growth of the organism.

One experiment concerns the target B.subtilis pol IIIC (Bacillus subtilis, UniProt P13267). As to the kind of experiment: biochemical. The procedure:
DNA pol activity was assayed as described in Barnes et al., Nuc. Acids Res., 6:1203-19 (1979), using activated “nicked” calf-thymus DNA as template primer, 10 pM [^3H-methyl]-dTTP as the labelled dNTP substrate, and dATP, dCTP, and dGTP at 25 μM each.
Inhibitory activity of the compounds is determined by measuring the ability of the agent to inhibit enzyme-catalyzed incorporation of [^3H]-dTMP into nicked calf thymus DNA in the absence of the competitor dGTP or dATP (“truncated assay”) (see G. E. Wright and N. C. Brown, Inhibition of Bacillus subtilis DNA Polymerase III by Arylhydrazinopyrimidines: Novel Properties of 2-Thiouracil Derivatives, Biochim. Biophys. Acta 432:37-48 (1976)). Purified pol IIIC is added to a buffered solution containing Mg^2+, DTT, glycerol, nicked calf thymus DNA, saturating concentrations of dATP, dCTP, dTTP and [^3H]-dTTP. Reaction mixtures are incubated at 30° C. for 10 minutes, quenched and filtered, and radioactivity in the acid-insoluble material measured by scintillation counting. Experiments are done in triplicate. Inhibitors are assayed by addition of several dilutions of a stock solution of inhibitor (DMSO or water, depending on solubility) before enzyme addition. […] The truncated assay, i.e. exclusion of the competitive substrate dGTP or dATP, depending upon whether the compound is a uracil derivative or an isocytosine derivative, respectively, allows for the direct determination of apparent inhibitor constants (K,) in this assay system.

The next experiment concerns B. subtilis. As to the kind of experiment: Inhibition of bacterial growth on agar plates (MIC). In kind it is cell-based. The following applies: Bacillus subtilis, 37° C., 24 hours. The procedure:
(§1) Each compound is assayed against a panel of Bacillus, Enterococcus and Staphylococcus, and a Gram-negative bacterium Escherichia coli as negative control, grown in appropriate plate media solidified with 1.3% agar-agar. Stock solutions of the compounds in dimethylsulfoxide or water, depending on solubility, are added to sterile medium at a temperature of 60° C. […] One tenth mL of diluted bacteria containing 500-1000 colony-forming units (CFU) are plated and spread, and the plates incubated at 37° C. for 24 hours. MIC (minimum inhibitory concentration) is equivalent to the lowest concentration at which growth, i.e. colony formation, is not observed.

Another experiment concerns E. fecalis. The experiment is described as above. In kind it is cell-based. As to conditions: 37° C., 24 hours. The procedure: as §1
The next experiment concerns E. fecium. The description is as above. In kind it is cell-based. The following applies: 37° C., 24 hours. The procedure:
as §1

A further experiment deals with S.aureus (Smith). The description is as above. The experiment is classed as cell-based. The following applies: Staphylococcus aureus, 37° C., 24 hours. The procedure:
as §1

Setting [1] is: truncated assay, apparent inhibitor constant, read-out: K1 B.subtilis pol IIIC.

Each structure is given as a SMILES string. Values after ≈ are worked out from the molar mass of the structure shown. Like-named read-outs stand apart in the source and are kept apart here.

Chain of B.subtilis pol IIIC (P13267 whole entry): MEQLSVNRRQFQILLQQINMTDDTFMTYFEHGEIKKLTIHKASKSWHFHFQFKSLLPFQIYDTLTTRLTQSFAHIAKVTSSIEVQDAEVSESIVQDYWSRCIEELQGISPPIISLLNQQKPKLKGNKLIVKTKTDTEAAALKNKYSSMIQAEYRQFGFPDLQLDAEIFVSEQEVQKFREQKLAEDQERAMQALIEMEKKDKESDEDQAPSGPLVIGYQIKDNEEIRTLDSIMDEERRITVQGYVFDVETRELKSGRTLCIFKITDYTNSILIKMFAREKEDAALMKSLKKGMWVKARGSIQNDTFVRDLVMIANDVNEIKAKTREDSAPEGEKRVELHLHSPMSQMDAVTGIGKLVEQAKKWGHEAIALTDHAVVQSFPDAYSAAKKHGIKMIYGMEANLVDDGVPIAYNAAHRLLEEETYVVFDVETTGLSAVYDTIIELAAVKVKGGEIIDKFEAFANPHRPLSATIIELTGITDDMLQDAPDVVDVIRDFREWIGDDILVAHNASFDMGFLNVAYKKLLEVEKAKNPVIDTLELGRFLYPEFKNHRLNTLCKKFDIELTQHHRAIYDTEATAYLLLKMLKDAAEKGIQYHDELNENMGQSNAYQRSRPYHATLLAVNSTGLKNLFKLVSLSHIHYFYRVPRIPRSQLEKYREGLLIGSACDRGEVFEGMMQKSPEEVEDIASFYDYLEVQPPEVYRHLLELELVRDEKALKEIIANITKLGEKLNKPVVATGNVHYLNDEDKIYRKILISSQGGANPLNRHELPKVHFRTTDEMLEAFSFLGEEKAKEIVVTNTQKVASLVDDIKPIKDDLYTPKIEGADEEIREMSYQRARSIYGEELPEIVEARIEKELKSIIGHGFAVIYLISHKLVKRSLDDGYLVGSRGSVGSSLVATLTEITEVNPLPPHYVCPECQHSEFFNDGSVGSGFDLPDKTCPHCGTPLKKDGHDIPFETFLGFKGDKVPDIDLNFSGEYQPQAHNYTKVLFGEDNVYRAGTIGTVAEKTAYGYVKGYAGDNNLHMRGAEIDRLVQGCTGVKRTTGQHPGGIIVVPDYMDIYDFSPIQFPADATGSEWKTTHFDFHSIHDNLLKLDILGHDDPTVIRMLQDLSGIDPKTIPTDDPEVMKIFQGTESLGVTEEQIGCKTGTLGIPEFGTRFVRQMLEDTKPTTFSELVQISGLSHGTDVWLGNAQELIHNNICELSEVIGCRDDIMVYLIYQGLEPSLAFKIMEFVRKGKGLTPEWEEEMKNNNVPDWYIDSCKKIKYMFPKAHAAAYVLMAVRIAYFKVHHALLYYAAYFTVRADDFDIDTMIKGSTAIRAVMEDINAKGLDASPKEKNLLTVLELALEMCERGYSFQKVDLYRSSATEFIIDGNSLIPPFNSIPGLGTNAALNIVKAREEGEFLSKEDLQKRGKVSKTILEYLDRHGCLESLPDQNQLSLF

In the case of `CCc1cc(Nc2cc(=O)n(CCCCN3CCSCC3)c(=O)[nH]2)ccc1C` [Compound 36, 3-[(N-Thiomorpholino)butyl]-6-(3-ethyl-4-methylanilino)uracil], the Ki at B.subtilis pol IIIC (setting [1]) was found to be 68 nM. The MIC was 5 µg/mL (≈ 12.4 µM) against B. subtilis, 5 µg/mL (≈ 12.4 µM) against E. fecalis, 5 µg/mL (≈ 12.4 µM) against E. fecium and 10 µg/mL (≈ 24.8 µM) with S.aureus (Smith).

For `CCc1cc(Nc2cc(=O)n(CCCCN3CCC(O)(c4ccc(Cl)c(C(F)(F)F)c4)CC3)c(=O)[nH]2)ccc1C` [Compound 37, 3{[4-(3-Trifluoromethylphenyl-4-chloro-)-4-hydroxypiperidino]butyl}-6-(3-ethyl-4-methylanilino)uracil], the Ki at B.subtilis pol IIIC (setting [1]) is 32 nM. Also, the MIC in the experiment on B. subtilis worked out at 1.25 µg/mL (≈ 2.16 µM); against E. fecalis, 2.5 µg/mL (≈ 4.32 µM); with E. fecium it was 2.5 µg/mL (≈ 4.32 µM); against S.aureus (Smith) it was 2.5 µg/mL (≈ 4.32 µM).

With `CCc1cc(Nc2cc(=O)n(CCCCN3CCC(O)(c4ccc(Cl)cc4)CC3)c(=O)[nH]2)ccc1C` [Compound 38, 3{[4-(4-Chlorophenyl)-4-hydroxypiperidino]butyl}-6-(3-ethyl-4-methylanilino)uracil], the Ki at B.subtilis pol IIIC (setting [1]) was found to be 25 nM. The MIC against B. subtilis, in the experiment with E. fecalis, in the experiment on E. fecium and against S.aureus (Smith) was 5 µg/mL (≈ 9.78 µM) throughout.

In the case of `CCc1cc(Nc2cc(=O)n(CCN3CCN(C(=O)c4ccccc4)CC3)c(=O)[nH]2)ccc1C` [Compound 39, 3-[2-(4-Benzoylpiperazino)ethyl]-6-(3-ethyl-4-methylanilino)uracil], the Ki on B.subtilis pol IIIC was 77 nM. In addition, the minimum inhibitory concentration (MIC) against B. subtilis turned out to be 2.5 µg/mL (≈ 5.42 µM); with E. fecalis it was 10 µg/mL (≈ 21.7 µM); in the experiment with E. fecium, 5 µg/mL (≈ 10.8 µM); against S.aureus (Smith), 10 µg/mL (≈ 21.7 µM).

As to `CCc1cc(Nc2cc(=O)n(CCCCN3CCN(C(=O)c4ccco4)CC3)c(=O)[nH]2)ccc1C` [Compound 40, 3-{4-[4-(2-Furoyl)piperazino]butyl}-6-(3-ethyl-4-methylanilino)uracil], at B.subtilis pol IIIC (setting [1]), the Ki is 43 nM. Moreover, the MIC with B. subtilis is 5 µg/mL (≈ 10.4 µM); in the experiment with E. fecalis, 5 µg/mL (≈ 10.4 µM); with E. fecium it was 10 µg/mL (≈ 20.9 µM); in the experiment with S.aureus (Smith) it was 5 µg/mL (≈ 10.4 µM).

`CCc1cc(Nc2cc(=O)n(CCCCN3CCN(Cc4ccccc4)CC3)c(=O)[nH]2)ccc1C` [Compound 41, 3-[4-(4-Benzylpiperazino)butyl]-6-(3-ethyl-4-methylanilino)uracil] displayed a Ki at B.subtilis pol IIIC of 34 nM. Further, the MIC in the experiment with B. subtilis was 5 µg/mL (≈ 10.5 µM); against E. fecalis, 10 µg/mL (≈ 21 µM); against E. fecium it was 5 µg/mL (≈ 10.5 µM); with S.aureus (Smith), greater than 20 µg/mL.

Take `CCc1cc(Nc2cc(=O)n(CCCCN3CCN(c4ncccn4)CC3)c(=O)[nH]2)ccc1C` [Compound 45, 3-{4-[4-(2-pyrimidinyl)piperazinyl]butyl}-6-(3-ethyl-4-methyylanilino)uracil]: the Ki at B.subtilis pol IIIC (setting [1]) was found to be 43 nM. The MIC amounted to 2.5 µg/mL (≈ 5.39 µM) against B. subtilis, 5 µg/mL (≈ 10.8 µM) with E. fecalis, 5 µg/mL (≈ 10.8 µM) against E. fecium and 10 µg/mL (≈ 21.6 µM) against S.aureus (Smith).

As for `CCc1cc(Nc2cc(=O)n(CCCCN3CCN(c4ccc(F)cc4)CC3)c(=O)[nH]2)ccc1C` [Compound 46, 3-{4-[(4-fluorophenyl)piperazinyl]butyl}-6-(3-ethyl-4-methyylanilino)uracil], the Ki at B.subtilis pol IIIC (setting [1]) is 70 nM. The MIC worked out at 5 µg/mL (≈ 10.4 µM) with B. subtilis, 10 µg/mL (≈ 20.9 µM) against E. fecalis, 5 µg/mL (≈ 10.4 µM) in the experiment with E. fecium and 20 µg/mL (≈ 41.7 µM) with S.aureus (Smith).

On B.subtilis pol IIIC, `CCc1cc(Nc2cc(=O)n(CCCCOC(=O)N3CCOCC3)c(=O)[nH]2)ccc1C` [Compound 47, 3-[4-(N-morpholinocarbonyloxy)butyl]-6-(3-ethyl-4-methylanilino)uracil] showed a Ki of 71 nM. The minimum inhibitory concentration (MIC) is less than 1.25 µg/mL against B. subtilis, 5 µg/mL (≈ 11.6 µM) with E. fecalis, 5 µg/mL (≈ 11.6 µM) against E. fecium and 5 µg/mL (≈ 11.6 µM) with S.aureus (Smith).

On B.subtilis pol IIIC, `CCc1cc(Nc2cc(=O)n(CCCCNS(=O)(=O)c3cccs3)c(=O)[nH]2)ccc1C` [Compound 48, 3-[4-(2-thienylsulfonylamino)butyl]-6-(3-ethyl-4-methylanilino)uracil] had a Ki of 75 nM. In addition, the MIC stood at 2.5 µg/mL (≈ 5.4 µM) against B. subtilis, 5 µg/mL (≈ 10.8 µM) with E. fecalis, 2.5 µg/mL (≈ 5.4 µM) against E. fecium and 5 µg/mL (≈ 10.8 µM) in the experiment with S.aureus (Smith).
